Test results published in patent US8455525B2, “Selective androgen receptor modulators” (Radius Health, Inc., priority 2008, dated 2013).
Where a name gives a salt, the structure may show the parent alone. Read-outs that look alike come from different tables or passages of the source.

Biological target: T1, androgen receptor (AR) (Rattus norvegicus, UniProt P15207)
T1 construct: purchased Invitrogen, Madison, Wis
T1 sequence (P15207 651-902 limits assumed): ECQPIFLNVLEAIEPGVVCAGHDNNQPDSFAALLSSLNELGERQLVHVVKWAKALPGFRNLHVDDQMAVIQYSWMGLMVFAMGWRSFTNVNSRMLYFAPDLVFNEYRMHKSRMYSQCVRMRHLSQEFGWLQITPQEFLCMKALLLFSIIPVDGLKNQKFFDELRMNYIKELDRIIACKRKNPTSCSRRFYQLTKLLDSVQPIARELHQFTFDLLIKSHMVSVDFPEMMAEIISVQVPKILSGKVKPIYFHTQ
Assay: androgen receptor binding assay (fluorescence polarization, Fluormone AL Green competition)
Method: The assay was performed as specified by the manufacturer (Invitrogen, Madison, Wis.). Briefly, 1 μl of 10 mM compound was added to 500 μl of AR screening buffer in a 1.5 ml eppendorf tube to make a 2×10^−5M stock. 10-fold serial dilutions of the test compounds were prepared ranging in concentration from 10^−5M to 10^−12M. Each dilution was added in triplicate to a black 384-microtiter plate. The test compounds will be diluted 2-fold in the final reaction. 2×AR-Fluormone™ complex was prepared with 2 nM Flourmone AL Green™ and 30 nM AR. 25 μl of 2× complex was aliquoted to each reaction well, such that the final reaction volume was 50 μl per well. Plate was sealed with a foil cover and incubated in the dark at room temperature for 4 h. Polarization values for each well were measured. The polarization values were plotted against the concentration of the test compound. […] As a control, a competition curve for R1881 (methyltrienolone) was performed for each assay. Curve Fitting was performed using GraphPad Prism® software from GraphPad™ Software Inc. Binding data are reported as a single determination if the experiment was run once only and as the average of experiments if the binding experiment was performed two or more times with that compound.
Where multiple data points have been taken, the value reported is the average of the multiple determinations.

[1] = single determination or average of multiple determinations, read-out: Binding IC50 (AR-Binding Affinity)

| Structure (SMILES) | IC50 | IC50 [1] |
| --- | --- | --- |
| C[C@H](O)[C@@H](Nc1ccc(C#N)c2ccccc12)c1nnc(-c2ccccc2)o1 [Example 13, 4-((1R,2S)-2-hydroxy-1-(5-phenyl-1,3,4-oxadiazol-2-yl)propylamino)-1-naphthonitrile] | 5 nM | – |
| Cc1c(N[C@H](CO)c2nnc(-c3ccccc3)o2)ccc(C#N)c1Cl [Example 17, (R)-2-chloro-4-(2-hydroxy-1-(5-phenyl-1,3,4-oxadiazol-2-yl)ethylamino)-3-methylbenzonitrile] | 10 nM | – |
| Cc1c(N[C@@H](c2nnc(-c3cccc(O)c3)o2)[C@H](C)O)ccc(C#N)c1Cl [Example 7, 2-chloro-4-((1R,2S)-2-hydroxy-1-(5-(3-hydroxyphenyl)-1,3,4-oxadiazol-2-yl)propylamino)-3-methylbenzonitrile] | 0.4 nM | – |
| C[C@@H](O)[C@@H](Nc1ccc(C#N)c2sccc12)c1nnc(-c2ccc(F)cc2)o1 [Example 64, 4-((1R,2R)-1-(5-(4-fluorophenyl)-1,3,4-oxadiazol-2-yl)-2-hydroxypropylamino)benzo[b]thiophene-7-carbonitrile] | 1 nM | – |
| Cc1c(N[C@@H](c2nnc(-c3ccc(F)cc3)o2)[C@H](C)O)ccc(C#N)c1Cl [Example 5, 2-Chloro-4-((1R,2S)-1-(5-(4-fluorophenyl)-1,3,4-oxadiazol-2-yl)-2-hydroxypropylamino)-3-methylbenzonitrile] | 50 nM | – |
| C[C@@H](O)[C@@H](Nc1ccc(C#N)c2sccc12)c1nnc(-c2ccc(C#N)cc2)o1 [Example 61, 4-((1R,2R)-1-(5-(4-cyanophenyl)-1,3,4-oxadiazol-2-yl)-2-hydroxypropylamino)benzo[b]thiophene-7-carbonitrile] | – | 1 nM |
| Cc1nnc([C@H](Nc2ccc(C#N)c(Cl)c2C)[C@H](C)O)o1 [Example 43, 2-Chloro-4-((1R,2S)-2-hydroxy-1-(5-methyl-1,3,4-oxadiazol-2-yl)propylamino)-3-methylbenzonitrile hydrochloride] | 3 nM | – |
| C[C@H](O)[C@@H](Nc1ccc(C#N)c(Cl)c1Cl)c1nnc(-c2ccc(Cl)cc2)o1 [Example 34, 2,3-Dichloro-4-((1R,2S)-1-(5-(4-chlorophenyl)-1,3,4-oxadiazol-2-yl)-2-hydroxypropylamino)benzonitrile] | 4 nM | – |
| C=Cc1c(N[C@@H](c2nnc(-c3ccc(C#N)cc3)o2)[C@H](C)O)ccc(C#N)c1Cl [Example 80, 2-chloro-4-((1R,2S)-1-(5-(4-cyanophenyl)-1,3,4-oxadiazol-2-yl)-2-hydroxypropylamino)-3-vinylbenzonitrile] | 1 nM | – |
| CC(=O)Nc1ccc(-c2nnc([C@H](Nc3ccc(C#N)c(Cl)c3C)[C@H](C)O)o2)cc1 [Example 78, N-(4-(5-((1R,2S)-1-(3-Chloro-4-cyano-2-methylphenylamino)-2-hydroxypropyl)-1,3,4-oxadiazol-2-yl)phenyl)acetamide] | 1 nM | – |
| C[C@H](O)[C@@H](Nc1ccc(C#N)c(Cl)c1)c1nnc(-c2ccc(C#N)cc2)o1 [Example 50, 2-Chloro-4-((1R,2S)-1-(5-(4-cyanophenyl)-1,3,4-oxadiazol-2-yl)-2-hydroxypropylamino)benzonitrile] | 5 nM | – |
| Cc1c(N[C@H](CO)c2nnc(-c3ccc(C#N)cc3)o2)ccc(C#N)c1Cl [Example 58, (R)-2-Chloro-4-(1-(5-(4-cyanophenyl)-1,3,4-oxadiazol-2-yl)-2-hydroxyethylamino)-3-methylbenzonitrile] | 10 nM | – |
| Cc1c(N[C@@H](c2nnc(-c3ccc(C(F)(F)F)cc3)o2)[C@H](C)O)ccc(C#N)c1Cl [Example 68, 2-chloro-4-((1R,2S)-2-hydroxy-1-(5-(4-(trifluoromethyl)phenyl)-1,3,4-oxadiazol-2-yl)propylamino)-3-methylbenzonitrile] | 12 nM | – |
| C[C@H](O)[C@@H](Nc1ccc(C#N)c2sccc12)c1nnc(-c2ccc(C#N)cc2)o1 [Example 60, 4-((1R,2S)-1-(5-(4-cyanophenyl)-1,3,4-oxadiazol-2-yl)-2-hydroxypropylamino)benzo[b]thiophene-7-carbonitrile] | – | 8 nM |
| COc1ccc(-c2nnc([C@H](Nc3ccc(C#N)c(Cl)c3C)[C@H](C)O)o2)cc1 [Example 2, 2-chloro-4-((1R,2S)-2-hydroxy-1-(5-(4-methoxyphenyl)-1,3,4-oxadiazol-2-yl)propylamino)-3-methylbenzonitrile] | 5 nM | – |
| CCCC(=O)Nc1ccc(-c2nnc([C@H](Nc3ccc(C#N)c(Cl)c3C)[C@@H](C)O)o2)cc1 [Example 71, N-(4-(5-((1R,2R)-1-(3-Chloro-4-cyano-2-methylphenylamino)-2-hydroxypropyl)-1,3,4-oxadiazol-2-yl)phenyl)butyramide] | 280 nM | – |
| C[C@H](O)[C@@H](Nc1ccc(C#N)c(C(F)(F)F)c1)c1nnc(-c2ccc(C#N)cc2)o1 [Example 45, 4-((1R,2S)-1-(5-(4-Cyanophenyl)-1,3,4-oxadiazol-2-yl)-2-hydroxypropylamino)-2-(trifluoromethyl)benzonitrile] | 470 nM | – |
| Cc1c(N[C@@H](c2ncc(-c3ccccc3)o2)[C@H](C)O)ccc(C#N)c1Cl [Example 36, 2-Chloro-4-((1R,2S)-2-hydroxy-1-(5-phenyloxazol-2-yl)propylamino)-3-methylbenzonitrile] | 12 nM | – |
| C[C@@H](O)[C@@H](Nc1ccc(C#N)c(C(F)(F)F)c1)c1nnc(-c2ccc(C#N)cc2)o1 [Example 44, 4-((1R,2R)-1-(5-(4-Cyanophenyl)-1,3,4-oxadiazol-2-yl)-2-hydroxypropylamino)-2-(trifluoro-methyl)benzonitrile] | 5 nM | – |
| C[C@H](O)[C@@H](Nc1ccc(C#N)c(Cl)c1)c1nnc(-c2ccc(S(C)(=O)=O)cc2)o1 [Example 48, 2-Chloro-4-((1R,2S)-2-hydroxy-1-(5-(4-(methylsulfonyl)phenyl)-1,3,4-oxadiazol-2-yl)propylamino)benzonitrile] | > 1000 nM | – |
| C[C@H](O)[C@@H](Nc1ccc(C#N)c(C(F)(F)F)c1)c1nnc(-c2ccccc2)o1 [Example 16, 4-((1R,2S)-2-hydroxy-1-(5-phenyl-1,3,4-oxadiazol-2-yl)propylamino)-2-(trifluoromethyl)benzonitrile] | 35 nM | – |
| Cc1c(N[C@@H](c2nnc(-c3ccc(NC(=O)c4ccccc4)cc3)o2)[C@@H](C)O)ccc(C#N)c1Cl [Example 69, N-(4-(5-((1R,2R)-1-(3-Chloro-4-cyano-2-methylphenylamino)-2-hydroxypropyl)-1,3,4-oxadiazol-2-yl)phenyl)benzamide] | > 1000 nM | – |
| Cc1c(N[C@@H](c2nnc(-c3ccc(Cl)c(Cl)c3)o2)[C@@H](C)O)ccc(C#N)c1Cl [Example 32, 2-Chloro-4-((1R,2R)-1-(5-(3,4-dichlorophenyl)-1,3,4-oxadiazol-2-yl)-2-hydroxypropylamino)-3-methylbenzonitrile] | 2 nM | – |
| C[C@@H](O)[C@@H](Nc1ccc(C#N)c2ccccc12)c1nnc(-c2ccc(C#N)cc2)o1 [Example 51, 4-((1R,2R)-1-(5-(4-Cyanophenyl)-1,3,4-oxadiazol-2-yl)-2-hydroxypropylamino)-1-naphthonitrile] | – | 600 nM |
| CC(=O)Nc1ccc(-c2nnc([C@H](Nc3ccc(C#N)c(Cl)c3C)[C@@H](C)O)o2)cc1 [Example 70, N-(4-(5-((1R,2R)-1-(3-Chloro-4-cyano-2-methylphenylamino)-2-hydroxypropyl)-1,3,4-oxadiazol-2-yl)phenyl)acetamide] | 4 nM | – |
| Cc1c(NC(c2nnc(-c3ccccc3)o2)C(O)c2ccccc2)ccc(C#N)c1Cl (racemic) [Example 38, DL-Threo-2-chloro-4-(2-hydroxy-2-phenyl-1-(5-phenyl-1,3,4-oxadiazol-2-yl)ethylamino)-3-methylbenzonitrile] | 60 nM | – |
| Cc1c(N[C@@H](c2nnc(-c3ccc(S(C)(=O)=O)cc3)o2)[C@@H](C)O)ccc(C#N)c1Cl [Example 25, 2-chloro-4-((1R,2R)-2-hydroxy-1-(5-(4-(methylsulfonyl)phenyl)-1,3,4-oxadiazol-2-yl)propylamino)-3-methylbenzonitrile] | 258 nM | – |
| C[C@H](O)[C@@H](Nc1ccc(C#N)c2sccc12)c1nnc(-c2ccccc2)o1 [Example 63, 4-((1R,2S)-2-hydroxy-1-(5-phenyl-1,3,4-oxadiazol-2-yl)propylamino)benzo[b]thiophene-7-carbonitrile] | 1 nM | – |
| Cc1c(N[C@@H](c2nnc(-c3ccc(Cl)cc3)o2)[C@H](C)O)ccc(C#N)c1Cl [Example 4, 2-chloro-4-((1R,2S)-1-(5-(4-chlorophenyl)-1,3,4-oxadiazol-2-yl)-2-hydroxypropylamino)-3-methylbenzonitrile] | 11 nM | – |
| Cc1c(N[C@@H](c2nnc(-c3ccc(F)cc3)s2)[C@@H](C)O)ccc(C#N)c1Cl [Example 28, 2-chloro-4-((1R,2R)-1-(5-(4-fluorophenyl)-1,3,4-thiadiazol-2-yl)-2-hydroxypropylamino)-3-methylbenzonitrile] | 16 nM | – |
